In the supplement of paper PMC10307832:

How the values were obtained:
Assay in all cases: relative viability (nuclei count vs DMSO), 5 days (fraction); higher = more cells survive
CUDC-101 + Vorinostat = compound: C#Cc1cccc(Nc2ncnc3cc(OC)c(OCCCCCCC(=O)NO)cc23)c1 [CUDC-101] + O=C(CCCCCCC(=O)Nc1ccccc1)NO [Vorinostat] (partner 1 µM)
In short: (§1)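 A single step with final 0.05% Triton X-100, 1% formaldehyde and 1 ug/ml Hoechst fixed the cells and stained nuclei 5 days after treatment. Lung cancer cell lines in 1536-well plates had been treated by pin tool the day after seeding with one drug alone or a fixed anchor-drug dose plus five library-drug doses (not always all listed) in √10 steps, and nuclei were counted on 4× images. Relative viability is the ratio of nuclei in treated wells to nuclei in vehicle wells, taken as the median of duplicate plates.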

Vandetanib + OSI-027 = compound: COc1cc2/c(=N/c3ccc(Br)cc3F)nc[nH]c2cc1OCC1CCN(C)CC1 [Vandetanib] + COc1cccc2cc(-c3nc([C@H]4CC[C@H](C(=O)O)CC4)n4ncnc(N)c34)[nH]c12 [OSI-027] (partner 0.5 µM)
In short: as §1

NVP-TAE684 + Olaparib = compound: COc1cc(N2CCC(N3CCN(C)CC3)CC2)ccc1Nc1ncc(Cl)c(Nc2ccccc2S(=O)(=O)C(C)C)n1 [NVP-TAE684] + O=C(c1cc(Cc2n[nH]c(=O)c3ccccc23)ccc1F)N1CCN(C(=O)C2CC2)CC1 [Olaparib] (partner 8 µM)
In short: as §1

CUDC-101 + Palbociclib = compound: C#Cc1cccc(Nc2ncnc3cc(OC)c(OCCCCCCC(=O)NO)cc23)c1 [CUDC-101] + CC(=O)c1c(C)c2cnc(Nc3ccc(N4CCNCC4)cn3)nc2n(C2CCCC2)c1=O [Palbociclib] (partner 0.5 µM)
In short: as §1

Cell Line	relative viability (CUDC-101 + Vorinostat; first compound 0.01 µM)	relative viability (CUDC-101 + Vorinostat; first compound 0.03162 µM)	relative viability (CUDC-101 + Vorinostat; first compound 0.1 µM)	relative viability (CUDC-101 + Vorinostat; first compound 0.3162 µM)	relative viability (CUDC-101 + Vorinostat; first compound 1 µM)	relative viability (Vandetanib + OSI-027; first compound 0.02 µM)	relative viability (Vandetanib + OSI-027; first compound 0.06325 µM)	relative viability (Vandetanib + OSI-027; first compound 0.2 µM)	relative viability (Vandetanib + OSI-027; first compound 0.6325 µM)	relative viability (Vandetanib + OSI-027; first compound 2 µM)	relative viability (NVP-TAE684 + Olaparib; first compound 0.2 µM)	relative viability (NVP-TAE684 + Olaparib; first compound 0.6325 µM)	relative viability (NVP-TAE684 + Olaparib; first compound 2 µM)	relative viability (CUDC-101 + Palbociclib; first compound 0.01 µM)	relative viability (CUDC-101 + Palbociclib; first compound 0.03162 µM)	relative viability (CUDC-101 + Palbociclib; first compound 0.1 µM)	relative viability (CUDC-101 + Palbociclib; first compound 0.3162 µM)	relative viability (CUDC-101 + Palbociclib; first compound 1 µM)
HCC-366	0.393	0.312	0.29	0.313	0.254	0.807	0.876	0.978	0.824	0.948	0.352	0.326	0.288	0.411	0.442	0.389	0.39	0.296
NCI-H2342	0.737	0.663	0.773	0.685	0.703	0.616	0.597	0.644	0.669	0.591	0.419	0.427	0.3	0.526	0.547	0.523	0.505	0.556
NCI-H661	0.783	0.764	0.748	0.534	0.362	0.721	0.66	0.668	0.58	0.629	0.771	0.788	0.625	0.382	0.381	0.388	0.416	0.287
SW 900	0.48	0.569	0.31	0.49	0.217	0.456	0.486	0.315	0.622	0.713	0.885	0.953	0.68	0.508	0.449	0.514	0.5	0.362
HCC-78	0.441	0.413	0.46	0.377	0.259	0.374	0.39	0.42	0.364	0.361	0.727	0.859	0.406	0.44	0.483	0.458	0.427	0.374
HCC-44	1.04	1.2	1.13	1.02	1.11	0.434	0.49	0.574	0.439	0.427	0.997	1.07	0.905	1.02	0.943	0.951	0.986	1.05
NCI-H1355	0.693	0.663	0.636	0.62	0.497	0.446	0.362	0.386	0.5	0.387	0.657	0.713	0.499	0.392	0.429	0.399	0.376	0.37
NCI-H1993	0.748	1.01	0.688	0.666	0.426	0.521	0.573	0.557	0.637	0.552	1.11	1.09	0.749	0.837	0.656	0.592	0.618	0.482
NCI-H1734	0.882	0.76	0.832	0.595	0.369	0.576	0.605	0.543	0.611	0.652	0.668	0.665	0.461	0.357	0.374	0.342	0.382	0.274
SK-MES-1	1.04	1.04	1.1	1.12	0.915	0.678	0.559	0.691	0.618	0.448	0.794	0.668	0.405	0.301	0.33	0.341	0.305	0.316
COR-L 105	0.921	0.663	0.831	0.611	0.371	0.629	0.641	0.507	0.411	0.329	0.695	0.595	–	0.383	0.404	0.408	0.427	0.294
EMC-BAC-2	0.506	0.449	0.507	0.309	0.191	0.382	0.358	0.318	0.381	0.38	0.506	0.447	0.35	0.546	0.514	0.502	0.502	0.375
NCI-H1915	0.527	0.511	0.481	0.358	0.374	0.599	0.575	0.616	0.648	0.569	0.295	0.281	0.228	0.547	0.493	0.524	0.472	0.339
NCI-H522	0.758	0.769	1.09	0.921	0.779	0.77	0.727	0.772	0.674	0.61	0.642	0.664	0.662	0.96	0.795	0.876	0.985	0.741
NCI-H358	0.697	0.733	0.695	0.447	0.128	0.706	0.569	0.678	0.504	0.307	0.637	0.579	0.275	0.148	0.152	0.141	0.137	0.119
CAL-12T	0.761	0.803	0.919	0.828	0.487	0.701	0.655	0.541	0.626	0.291	0.664	0.781	0.267	0.81	0.448	0.333	0.412	0.34
